We go through 1 compound from patent US10550304B2, “Quaternary ammonium compounds and gas hydrate inhibitor compositions” (M-I DRILLING FLUIDS UK LIMITED, priority 2013, dated 2020).

One data set has as its system Skeletonema costatum. The data set can be described thus: Toxicity against Skeletonema costatum. The settings on record: over 72 hours. In kind it is cell-based. How it is done:
The toxicity of a quaternary ammonium compound or an LDHI composition comprising the quaternary ammonium compound may be evaluated by testing against Skeletonema costatum and determining EC50 values in the aquatic environment. Also the percentage biodegradation may be measured after 28 days in seawater.
Toxicity was tested against Skeletonema costatum and EC50 values determined (over 72 hours).

The nature of data set [1]: Biodegradation in seawater, OECD TG 306 28 day method. The settings on record: OECD TG 306, 28 days. The protocol:
Environmental experiments were performed to test biodegradation and toxicity. The biodegradation tests used the standard OECD Guideline for Testing of Chemicals TG 306 (Biodegradability in Seawater) 28 day method (version adopted 17 Jul. 1992) for testing biodegradation of chemicals in seawater.

The term EC50 denotes the concentration giving half of the maximal effect. Regarding `CCCCCCCCCCCCCC[P+](CCCC)(CCCC)CCCC.[Cl-]` [TTPC, tributyl tetradecylphosphonium chloride], in the data set with Skeletonema costatum, the EC50 stood at 0.016 µg/mL. Further, the “Biodegradation after 28 days” value in data set [1] is given as 11%.
